We go through 13 compounds from patent US20240018123A1, “COMPOUND FOR INHIBITING OR DISINTEGRATING ANDROGEN RECEPTOR, AND PHARMACEUTICAL USE THEREOF” (KOREA RESEARCH INSTITUTE OF CHEMICAL TECHNOLOGY, priority 2020, published 2024).

The target in data set [1] is T1, Androgen receptor (AR) (Homo sapiens, UniProt P10275, T878A).
T1 construct: 5.5×10^5 LNCap cells were injected into each well of a 6-well plate; endogenous in cells; host or cells: LNCaP
T1 sequence (P10275 1-920 T878A): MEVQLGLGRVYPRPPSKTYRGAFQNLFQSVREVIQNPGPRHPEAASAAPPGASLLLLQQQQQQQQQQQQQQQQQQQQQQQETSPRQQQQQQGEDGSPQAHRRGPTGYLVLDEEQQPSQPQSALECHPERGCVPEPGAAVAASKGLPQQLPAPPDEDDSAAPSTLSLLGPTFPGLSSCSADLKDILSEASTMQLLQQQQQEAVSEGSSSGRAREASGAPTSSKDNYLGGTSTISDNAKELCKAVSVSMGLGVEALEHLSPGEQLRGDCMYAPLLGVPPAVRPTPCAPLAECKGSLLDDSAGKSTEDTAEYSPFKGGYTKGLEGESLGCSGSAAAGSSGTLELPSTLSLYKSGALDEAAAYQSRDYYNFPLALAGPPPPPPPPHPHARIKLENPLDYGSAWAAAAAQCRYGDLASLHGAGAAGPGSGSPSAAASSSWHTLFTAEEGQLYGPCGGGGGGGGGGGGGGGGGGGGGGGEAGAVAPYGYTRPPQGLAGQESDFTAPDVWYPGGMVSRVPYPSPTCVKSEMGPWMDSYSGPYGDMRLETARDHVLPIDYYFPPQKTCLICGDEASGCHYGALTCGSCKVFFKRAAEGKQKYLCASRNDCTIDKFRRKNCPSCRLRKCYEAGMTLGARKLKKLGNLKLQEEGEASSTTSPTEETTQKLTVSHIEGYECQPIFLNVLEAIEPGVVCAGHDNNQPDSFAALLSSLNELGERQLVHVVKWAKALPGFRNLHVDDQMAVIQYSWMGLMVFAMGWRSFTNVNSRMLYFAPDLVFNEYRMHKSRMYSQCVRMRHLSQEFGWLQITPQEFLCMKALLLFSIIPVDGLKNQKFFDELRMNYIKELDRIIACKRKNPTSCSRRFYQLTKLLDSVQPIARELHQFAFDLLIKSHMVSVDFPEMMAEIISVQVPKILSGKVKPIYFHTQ
The experiment in a line: Assessment of AR proteolytic activity (Western blotting of LNCap cell lysates). It counts as cell-based. Conditions: 24 hours of treatment, Western blotting quantified with Image J. In a few lines: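 AR degradation read by Western blot densitometry on RIPA lysates (pH 7.5, protease inhibitor cocktail). Lysates came from LNCap cells, 5.5×10^5 per well, exposed to compound for 24 hours.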
In general terms: Immunoblotting shows a protein as a band on a membrane.

For data set [2], the system named is LNCaP cells. Kind of data set: Cytotoxicity assessment (Cell-titer-glo cell viability), LNCaP. To be noted: read-out: LNCAP (CC50); LNCaP cells, 6 days of treatment, Cell-titer-glo, vs DMSO.
Experimental: In order to evaluate the androgen receptor (AR) cytotoxicity of the compounds according to the present invention, the following experiment was conducted. Specifically, 1.5×10^3 (LNCaP) or 4×10^3 (VCaP, 22RV1), respectively, of LNCaP, VCaP, and 22RV1 cells were injected into each well of a 96-well plate. The next day, each well was treated with the compound at a final concentration of 3 nM, 10 nM, 30 nM, 100 nM, 300 nM, 1 μM, 3 μM, and 10 μM. […] After 6 days of treatment, Cell-titer-glo (promega) was treated and reacted for 10 minutes, and cell viability was measured with a multimode plate reader (PerkinElmer, Inc.), and the change was quantified compared to when DMSO was treated.
Data set [3] deals with VCaP cells.

Consider `CC1(C)[C@H](NC(=O)c2ccc(OCCOCCOCCOCCOCCOCCNc3cccc4nnn(C5CCC(=O)NC5=O)c(=O)c34)cc2)C(C)(C)[C@H]1Oc1ccc(C#N)c(Cl)c1` (some centres unmarked) [Example 1, N-((1r,3r)-3-(3-chloro-4-cyanophenoxy)-2,2,4,4-tetramethylcyclobutyl)-4-((17-((3-(2,6-dioxopiperidin-3-yl)-4-oxo-3,4-dihydrobenzo[d][1,2,3]triazin-5-yl)amino)-3,6,9,12,15-pentaoxaheptadecyl)oxy)benzamide], for which the “Degradation (1 μM treated in LNCaP, % AR remaining)” value in data set [1] came out at 72%. For the same compound, in data set [2], the CC50 is 5690 nM.

Take `CC1(C)[C@H](NC(=O)c2ccc(N3CCN(CC4CCN(CC5CN(c6ccc7nnn(C8CCC(=O)NC8=O)c(=O)c7c6)C5)CC4)CC3)cc2)C(C)(C)[C@H]1Oc1ccc(C#N)c(Cl)c1` (some centres unmarked) [Example 67, N-((1r,3r)-3-(3-chloro-4-cyanophenoxy)-2,2,4,4-tetramethylcyclobutyl)-4-(4-((1-((1-(3-(2,6-dioxopiperidin-3-yl)-4-oxo-3,4-dihydrobenzo[d][1,2,3]triazin-6-yl)azetidin-3-yl)methyl)piperidin-4-yl)methyl)piperazin-1-yl)benzamide]: the “Degradation (1 μM treated in LNCaP, % AR remaining)” value in data set [1] came to 88%. This compound also showed a CC50 in data set [3] of 106 nM.

As to `CC1(C)C(NC(=O)c2ccc(N3CCN(CC4CCN(CC5CCN(c6ccc7nnn(C8CCC(=O)NC8=O)c(=O)c7c6)CC5)CC4)CC3)cc2)C(C)(C)C1Oc1ccc(C#N)c(Cl)c1` (centres unmarked) [Example 70, N-((1r,3r)-3-(3-chloro-4-cyanophenoxy)-2,2,4,4-tetramethylcyclobutyl)-4-(4-((1-((1-(3-(2,6-dioxopiperidin-3-yl)-4-oxo-3,4-dihydrobenzo[d][1,2,3]triazin-6-yl)piperidin-4-yl)methyl)piperidin-4-yl)methyl)piperazin-1-yl)benzamide], the “Degradation (1 μM treated in LNCaP, % AR remaining)” value in data set [1] was 99%. For the same compound, the CC50 in data set [3] was determined as 205 nM.

Regarding `CC1(C)C(NC(=O)c2ccc(N3CC4CC3CN4CC3CCN(c4ccc5nnn(C6CCC(=O)NC6=O)c(=O)c5c4)CC3)cc2)C(C)(C)C1Oc1ccc(C#N)c(Cl)c1` (centres unmarked) [Example 72, N-((1r,3r)-3-(3-chloro-4-cyanophenoxy)-2,2,4,4-tetramethylcyclobutyl)-4-(5-((1-(3-(2,6-dioxopiperidin-3-yl)-4-oxo-3,4-dihydrobenzo[d][1,2,3]triazin-6-yl)piperidin-4-yl)methyl)-2,5-diazabicyclo[2.2.1]heptan-2-yl)benzamide], the “Degradation (1 μM treated in LNCaP, % AR remaining)” value in data set [1] came out at 92%. For the same compound, in data set [3], it took 263 nM to reach half-maximal cytotoxicity (CC50).

Consider `CC1(C)[C@H](NC(=O)c2ccc(N3CC4CC3CN4CC3CCN(C(=O)C4CN(c5ccc6nnn(C7CCC(=O)NC7=O)c(=O)c6c5)C4)CC3)cc2)C(C)(C)[C@H]1Oc1ccc(C#N)c(Cl)c1` (some centres unmarked) [Example 73, N-((1r,3r)-3-(3-chloro-4-cyanophenoxy)-2,2,4,4-tetramethylcyclobutyl)-4-(5-((1-(1-(3-(2,6-dioxopiperidin-3-yl)-4-oxo-3,4-dihydrobenzo[d][1,2,3]triazin-6-yl)azetidine-3-carbonyl)piperidin-4-yl)methyl)-2,5-diazabicyclo[2.2.1]heptan-2-yl)benzamide], for which the “Degradation (1 μM treated in LNCaP, % AR remaining)” value in data set [1] is listed as 40%. Besides, the CC50 in data set [3] came out at 79.5 nM.

Consider `CC1(C)C(NC(=O)c2ccc(C3CCN(CCOC4CCN(C(=O)C5CN(c6ccc7nnn(C8CCC(=O)NC8=O)c(=O)c7c6)C5)CC4)CC3)cc2)C(C)(C)C1Oc1ccc(C#N)c(Cl)c1` (centres unmarked) [Example 75, N-((1r,3r)-3-(3-chloro-4-cyanophenoxy)-2,2,4,4-tetramethylcyclobutyl)-4-(1-(2-((1-(1-(3-(2,6-dioxopiperidin-3-yl)-4-oxo-3,4-dihydrobenzo[d][1,2,3]triazin-6-yl)azetidine-3-carbonyl)piperidin-4-yl)oxy)ethyl)piperidin-4-yl)benzamide], for which the “Degradation (1 μM treated in LNCaP, % AR remaining)” value in data set [1] is on record as 9%. The compound also had a CC50 in data set [3] of 30.1 nM.

`CC1(C)C(NC(=O)c2ccc(C3CCN(CCOC4CCN(c5ccc6nnn(C7CCC(=O)NC7=O)c(=O)c6c5)CC4)CC3)cc2)C(C)(C)C1Oc1ccc(C#N)c(Cl)c1` (centres unmarked) [Example 76, N-((1r,3r)-3-(3-chloro-4-cyanophenoxy)-2,2,4,4-tetramethylcyclobutyl)-4-(1-(2-((1-(3-(2,6-dioxopiperidin-3-yl)-4-oxo-3,4-dihydrobenzo[d][1,2,3]triazin-6-yl)piperidin-4-yl)oxy)ethyl)piperidin-4-yl)benzamide]: the “Degradation (1 μM treated in LNCaP, % AR remaining)” value in data set [1] is recorded as 30%. The compound also had a CC50 in data set [3] of 35 nM.

In the case of `[C-]#[N+]c1ccc(OC2C(C)(C)C(NC(=O)c3ccc(N4CCN(CCc5cn(-c6ccc7nnn(C8CCC(=O)NC8=O)c(=O)c7c6)nn5)CC4)cc3)C2(C)C)cc1Cl` (centres unmarked) [Example 77, N-((1r,3r)-3-(3-chloro-4-isocyanophenoxy)-2,2,4,4-tetramethylcyclobutyl)-4-(4-(2-(1-(3-(2,6-dioxopiperidin-3-yl)-4-oxo-3,4-dihydrobenzo[d][1,2,3]triazin-6-yl)-1H-1,2,3-triazol-4-yl)ethyl)piperazin-1-yl)benzamide], in data set [1], the “Degradation (1 μM treated in LNCaP, % AR remaining)” value was determined as 74%. Further, half-maximal cytotoxicity in data set [3] (CC50) was put at 46.6 nM.

For `CC1(C)C(NC(=O)c2ccc(-c3cnn(C4CCN(CC5CCN(c6ccc7nnn(C8CCC(=O)NC8=O)c(=O)c7c6)CC5)CC4)c3)cc2)C(C)(C)C1Oc1ccc(C#N)c(Cl)c1` (centres unmarked) [Example 84, N-((1r,3r)-3-(3-chloro-4-cyanophenoxy)-2,2,4,4-tetramethylcyclobutyl)-4-(1-(1-((1-(3-(2,6-dioxopiperidin-3-yl)-4-oxo-3,4-dihydrobenzo[d][1,2,3]triazin-6-yl)piperidin-4-yl)methyl)piperidin-4-yl)-1H-pyrazol-4-yl)benzamide], the “Degradation (1 μM treated in LNCaP, % AR remaining)” value in data set [1] worked out at 18%. The midpoint of cytotoxicity in data set [3], the CC50, lay at 15.4 nM.

For the compound `CC1(C)C(NC(=O)c2ccc(C#CCC3CCN(c4ccc5nnn(C6CCC(=O)NC6=O)c(=O)c5c4)CC3)cc2)C(C)(C)C1Oc1ccc(C#N)c(Cl)c1` (centres unmarked) [Example 85, N-((1r,3r)-3-(3-chloro-4-cyanophenoxy)-2,2,4,4-tetramethylcyclobutyl)-4-(3-(1-(3-(2,6-dioxopiperidin-3-yl)-4-oxo-3,4-dihydrobenzo[d][1,2,3]triazin-6-yl)piperidin-4-yl)prop-1-yn-1-yl)benzamide], the “Degradation (1 μM treated in LNCaP, % AR remaining)” value in data set [1] is reported as 21%. In data set [3], this compound gave a CC50 of 171 nM.

On to `CC1(C)C(NC(=O)c2ccc(C#CCC3CCN(C(=O)C4CN(c5ccc6nnn(C7CCC(=O)NC7=O)c(=O)c6c5)C4)CC3)cc2)C(C)(C)C1Oc1ccc(C#N)c(Cl)c1` (centres unmarked) [Example 87, N-((1r,3r)-3-(3-chloro-4-cyanophenoxy)-2,2,4,4-tetramethylcyclobutyl)-4-(3-(1-(1-(3-(2,6-dioxopiperidin-3-yl)-4-oxo-3,4-dihydrobenzo[d][1,2,3]triazin-6-yl)azetidine-3-carbonyl)piperidin-4-yl)prop-1-yn-1-yl)benzamide], for which, in data set [1], the “Degradation (1 μM treated in LNCaP, % AR remaining)” value is recorded as 9%. In data set [3], this compound registered a 50% cytotoxic concentration (CC50) of 31.9 nM.

In the case of `CC1(C)C(NC(=O)c2ccc(C#CCC3CCN(CC4CCN(c5ccc6nnn(C7CCC(=O)NC7=O)c(=O)c6c5)CC4)CC3)cc2)C(C)(C)C1Oc1ccc(C#N)c(Cl)c1` (centres unmarked) [Example 88, N-((1r,3r)-3-(3-chloro-4-cyanophenoxy)-2,2,4,4-tetramethylcyclobutyl)-4-(3-(1-((1-(3-(2,6-dioxopiperidin-3-yl)-4-oxo-3,4-dihydrobenzo[d][1,2,3]triazin-6-yl)piperidin-4-yl)methyl)piperidin-4-yl)prop-1-yn-1-yl)benzamide], the “Degradation (1 μM treated in LNCaP, % AR remaining)” value in data set [1] turned out to be 14%. Further, the CC50 in data set [3] worked out at 14.5 nM.

As to `CC1(C)C(NC(=O)c2ccc(-n3cc(CC4CCN(C(=O)C5CN(c6ccc7nnn(C8CCC(=O)NC8=O)c(=O)c7c6)C5)CC4)nn3)cc2)C(C)(C)C1Oc1ccc(C#N)c(Cl)c1` (centres unmarked) [Example 90, N-((1r,3r)-3-(3-chloro-4-cyanophenoxy)-2,2,4,4-tetramethylcyclobutyl)-4-(4-((1-(1-(3-(2,6-dioxopiperidin-3-yl)-4-oxo-3,4-dihydrobenzo[d][1,2,3]triazin-6-yl)azetidine-3-carbonyl)piperidin-4-yl)methyl)-1H-1,2,3-triazol-1-yl)benzamide], in data set [1], the “Degradation (1 μM treated in LNCaP, % AR remaining)” value is 5%. Besides, in data set [3], the CC50 came to 19.6 nM.

In general, CC50 refers to the concentration giving 50% cytotoxicity.
